{"source": "ChEMBL document CHEMBL5465560", "about": "“Selectivity Literature for EUbOPEN Chemogenomic Library” (2024)", "key": {"[1]": {"molecular_target": "T1, Serine/threonine-protein kinase TNNI3K (Homo sapiens) (UniProt Q59H18)", "T1 sequence (whole entry)": "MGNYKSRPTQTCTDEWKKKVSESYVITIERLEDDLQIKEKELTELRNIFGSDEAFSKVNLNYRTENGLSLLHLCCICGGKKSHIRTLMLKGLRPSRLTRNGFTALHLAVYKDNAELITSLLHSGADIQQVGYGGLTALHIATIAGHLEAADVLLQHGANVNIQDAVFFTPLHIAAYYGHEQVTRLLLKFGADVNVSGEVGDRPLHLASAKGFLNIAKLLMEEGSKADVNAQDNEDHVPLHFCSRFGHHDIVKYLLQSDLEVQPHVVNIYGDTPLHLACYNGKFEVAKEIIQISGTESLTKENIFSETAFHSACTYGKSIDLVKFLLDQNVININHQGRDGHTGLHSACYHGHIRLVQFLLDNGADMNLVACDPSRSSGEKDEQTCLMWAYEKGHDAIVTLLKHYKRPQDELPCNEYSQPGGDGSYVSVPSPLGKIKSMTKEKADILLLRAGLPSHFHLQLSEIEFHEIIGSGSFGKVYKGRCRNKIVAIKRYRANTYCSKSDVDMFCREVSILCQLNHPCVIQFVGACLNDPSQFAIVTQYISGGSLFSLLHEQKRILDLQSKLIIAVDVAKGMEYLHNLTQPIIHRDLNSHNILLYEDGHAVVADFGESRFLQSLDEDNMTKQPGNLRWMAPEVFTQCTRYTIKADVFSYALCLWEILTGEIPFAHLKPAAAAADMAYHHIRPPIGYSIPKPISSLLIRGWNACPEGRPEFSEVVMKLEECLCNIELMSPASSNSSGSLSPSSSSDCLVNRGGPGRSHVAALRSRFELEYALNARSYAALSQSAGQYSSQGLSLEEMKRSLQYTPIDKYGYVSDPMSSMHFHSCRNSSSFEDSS", "assay": "Selectivity interaction (KinomeScan (DiscoverX)) EUB0000092b TNNI3K", "conditions": "at 10 µM"}, "[2]": {"molecular_target": "T2, Dual specificity mitogen-activated protein kinase kinase 6 (Homo sapiens) (UniProt P52564)", "T2 sequence (whole entry)": "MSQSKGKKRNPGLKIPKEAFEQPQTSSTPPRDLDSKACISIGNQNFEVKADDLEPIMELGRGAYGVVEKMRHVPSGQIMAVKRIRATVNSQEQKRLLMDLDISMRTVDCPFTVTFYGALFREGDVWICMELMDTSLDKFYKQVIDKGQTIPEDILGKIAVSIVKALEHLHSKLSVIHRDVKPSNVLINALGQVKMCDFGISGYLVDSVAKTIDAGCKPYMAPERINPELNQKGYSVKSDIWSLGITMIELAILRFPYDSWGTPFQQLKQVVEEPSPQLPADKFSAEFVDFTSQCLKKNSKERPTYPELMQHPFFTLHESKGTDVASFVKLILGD", "assay": "Selectivity interaction (KinomeScan (DiscoverX)) EUB0001079a MAP2K6", "conditions": "at 1 µM"}, "[3]": {"molecular_target": "Serine/threonine-protein kinase 35 (Homo sapiens) (UniProt Q8TDR2)", "sequence (Q8TDR2 whole entry)": "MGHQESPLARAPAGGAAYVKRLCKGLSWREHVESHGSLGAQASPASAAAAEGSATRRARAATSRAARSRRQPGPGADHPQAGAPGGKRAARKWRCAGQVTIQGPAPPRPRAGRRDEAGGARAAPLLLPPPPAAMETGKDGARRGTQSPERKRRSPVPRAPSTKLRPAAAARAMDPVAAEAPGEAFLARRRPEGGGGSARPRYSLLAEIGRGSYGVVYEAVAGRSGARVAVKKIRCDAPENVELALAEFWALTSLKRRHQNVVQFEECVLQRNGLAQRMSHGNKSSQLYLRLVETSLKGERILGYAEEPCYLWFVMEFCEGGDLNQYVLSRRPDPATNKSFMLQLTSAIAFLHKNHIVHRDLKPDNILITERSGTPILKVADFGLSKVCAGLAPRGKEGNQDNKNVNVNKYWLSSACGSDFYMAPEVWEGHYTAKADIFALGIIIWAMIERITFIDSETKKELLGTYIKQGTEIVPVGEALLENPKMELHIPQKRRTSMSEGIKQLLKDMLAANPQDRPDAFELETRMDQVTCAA", "assay": "Selectivity interaction (KinomeScan (DiscoverX)) EUB0000666a STK35", "conditions": "at 10 µM"}, "[4]": {"molecular_target": "Phosphatidylinositol 3-kinase catalytic subunit type 3 (Homo sapiens, UniProt Q8NEB9)", "sequence (Q8NEB9 whole entry)": "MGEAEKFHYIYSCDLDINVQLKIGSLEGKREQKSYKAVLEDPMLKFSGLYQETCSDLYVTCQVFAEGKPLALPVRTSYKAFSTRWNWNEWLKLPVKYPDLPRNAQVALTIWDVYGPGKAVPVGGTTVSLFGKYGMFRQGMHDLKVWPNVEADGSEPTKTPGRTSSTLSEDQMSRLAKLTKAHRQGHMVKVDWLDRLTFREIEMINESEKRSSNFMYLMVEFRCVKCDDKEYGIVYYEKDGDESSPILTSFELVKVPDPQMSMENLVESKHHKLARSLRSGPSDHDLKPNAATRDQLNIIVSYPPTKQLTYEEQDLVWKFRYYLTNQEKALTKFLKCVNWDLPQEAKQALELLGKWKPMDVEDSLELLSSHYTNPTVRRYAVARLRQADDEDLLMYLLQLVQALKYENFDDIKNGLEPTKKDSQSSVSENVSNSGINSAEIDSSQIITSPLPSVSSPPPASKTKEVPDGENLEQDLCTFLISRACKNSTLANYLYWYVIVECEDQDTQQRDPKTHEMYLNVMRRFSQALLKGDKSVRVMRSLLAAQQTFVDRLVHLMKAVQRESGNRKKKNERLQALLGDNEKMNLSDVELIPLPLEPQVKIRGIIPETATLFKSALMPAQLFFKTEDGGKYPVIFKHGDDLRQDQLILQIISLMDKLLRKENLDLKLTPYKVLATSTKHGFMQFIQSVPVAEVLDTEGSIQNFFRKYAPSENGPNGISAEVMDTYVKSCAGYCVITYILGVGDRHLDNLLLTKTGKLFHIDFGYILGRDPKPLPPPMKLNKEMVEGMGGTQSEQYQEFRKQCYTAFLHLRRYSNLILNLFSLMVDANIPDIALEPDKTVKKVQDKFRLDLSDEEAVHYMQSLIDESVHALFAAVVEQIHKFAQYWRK", "assay": "Selectivity interaction (ActivX KiNativ screen (kinase selectivity in THP-1 cell lysates)) EUB0000639a PIK3C3", "format": "subcellular", "conditions": "lysate, at 0.2 µM"}, "[5]": {"molecular_target": "Tyrosine-protein kinase ABL1 (Homo sapiens, UniProt P00519)", "sequence (P00519 whole entry)": "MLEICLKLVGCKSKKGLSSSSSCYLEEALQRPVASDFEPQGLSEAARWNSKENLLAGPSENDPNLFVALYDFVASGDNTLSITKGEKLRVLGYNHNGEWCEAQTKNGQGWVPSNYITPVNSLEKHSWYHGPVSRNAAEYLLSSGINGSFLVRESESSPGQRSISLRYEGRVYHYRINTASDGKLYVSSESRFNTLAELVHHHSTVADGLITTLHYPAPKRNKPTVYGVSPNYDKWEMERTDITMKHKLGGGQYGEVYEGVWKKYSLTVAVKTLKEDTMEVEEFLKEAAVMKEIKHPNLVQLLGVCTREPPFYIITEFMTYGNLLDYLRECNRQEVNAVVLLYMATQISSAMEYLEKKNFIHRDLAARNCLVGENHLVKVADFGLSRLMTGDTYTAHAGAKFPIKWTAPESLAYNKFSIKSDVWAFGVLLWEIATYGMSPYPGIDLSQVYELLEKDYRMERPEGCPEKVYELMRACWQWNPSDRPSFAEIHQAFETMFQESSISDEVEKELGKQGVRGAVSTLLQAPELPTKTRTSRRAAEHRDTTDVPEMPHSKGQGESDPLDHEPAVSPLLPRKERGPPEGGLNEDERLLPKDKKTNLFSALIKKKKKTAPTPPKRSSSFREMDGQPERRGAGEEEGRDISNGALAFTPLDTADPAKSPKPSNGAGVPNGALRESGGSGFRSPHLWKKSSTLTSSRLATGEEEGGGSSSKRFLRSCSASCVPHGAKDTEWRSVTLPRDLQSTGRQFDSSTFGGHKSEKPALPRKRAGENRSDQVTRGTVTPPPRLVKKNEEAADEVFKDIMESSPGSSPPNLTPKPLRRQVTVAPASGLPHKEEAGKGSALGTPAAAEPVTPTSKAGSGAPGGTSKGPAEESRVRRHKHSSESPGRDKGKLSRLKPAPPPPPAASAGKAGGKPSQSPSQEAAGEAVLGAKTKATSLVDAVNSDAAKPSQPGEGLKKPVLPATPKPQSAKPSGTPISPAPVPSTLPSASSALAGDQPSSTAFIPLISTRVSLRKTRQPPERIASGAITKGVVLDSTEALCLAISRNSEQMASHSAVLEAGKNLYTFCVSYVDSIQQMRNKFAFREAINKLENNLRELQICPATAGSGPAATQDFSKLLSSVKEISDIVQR", "assay": "Selectivity interaction (Kinase panel (Invitrogen)) EUB0000639a ABL1", "conditions": "at 200 nM"}, "[6]": {"molecular_target": "T3, Serine/threonine-protein kinase tousled-like 1 (Homo sapiens) (UniProt Q9UKI8)", "T3 sequence (whole entry)": "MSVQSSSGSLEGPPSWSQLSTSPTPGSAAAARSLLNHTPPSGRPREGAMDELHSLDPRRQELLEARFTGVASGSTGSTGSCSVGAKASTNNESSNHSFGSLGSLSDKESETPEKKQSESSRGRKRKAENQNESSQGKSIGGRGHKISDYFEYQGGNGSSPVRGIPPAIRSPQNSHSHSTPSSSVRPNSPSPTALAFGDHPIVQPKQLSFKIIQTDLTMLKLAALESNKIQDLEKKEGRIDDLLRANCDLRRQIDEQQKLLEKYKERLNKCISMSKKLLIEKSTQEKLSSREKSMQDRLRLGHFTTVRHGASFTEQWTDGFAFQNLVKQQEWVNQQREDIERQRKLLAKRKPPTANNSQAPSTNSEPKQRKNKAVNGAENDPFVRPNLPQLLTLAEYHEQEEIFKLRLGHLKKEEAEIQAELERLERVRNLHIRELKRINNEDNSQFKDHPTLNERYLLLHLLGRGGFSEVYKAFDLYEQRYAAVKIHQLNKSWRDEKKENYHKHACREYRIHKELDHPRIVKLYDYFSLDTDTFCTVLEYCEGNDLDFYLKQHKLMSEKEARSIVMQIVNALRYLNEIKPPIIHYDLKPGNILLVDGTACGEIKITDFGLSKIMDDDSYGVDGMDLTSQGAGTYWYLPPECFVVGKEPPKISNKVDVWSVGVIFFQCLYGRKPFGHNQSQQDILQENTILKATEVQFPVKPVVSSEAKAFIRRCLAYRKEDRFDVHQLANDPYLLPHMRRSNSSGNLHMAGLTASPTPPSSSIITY", "assay": "Selectivity interaction (ActivX KiNativ screen (kinase selectivity in THP-1 cell lysates)) EUB0000639a TLK1", "format": "subcellular", "conditions": "lysate, at 0.04 µM"}, "[7]": {"molecular_target": "Macrophage colony-stimulating factor 1 receptor (Homo sapiens) (UniProt P07333)", "assay": "Selectivity interaction (KinomeScan (DiscoverX)) EUB0000607a CSF1R", "conditions": "at 10 µM"}, "Focal adhesion kinase 1": {"molecular_target": "Focal adhesion kinase 1 (Homo sapiens, UniProt Q05397)", "assay": "Selectivity interaction (KinomeScan (DiscoverX)) EUB0001049a PTK2", "conditions": "at 1 µM"}, "[8]": {"molecular_target": "T4, Testis-specific serine/threonine-protein kinase 1 (Homo sapiens) (UniProt Q9BXA7)", "T4 sequence (whole entry)": "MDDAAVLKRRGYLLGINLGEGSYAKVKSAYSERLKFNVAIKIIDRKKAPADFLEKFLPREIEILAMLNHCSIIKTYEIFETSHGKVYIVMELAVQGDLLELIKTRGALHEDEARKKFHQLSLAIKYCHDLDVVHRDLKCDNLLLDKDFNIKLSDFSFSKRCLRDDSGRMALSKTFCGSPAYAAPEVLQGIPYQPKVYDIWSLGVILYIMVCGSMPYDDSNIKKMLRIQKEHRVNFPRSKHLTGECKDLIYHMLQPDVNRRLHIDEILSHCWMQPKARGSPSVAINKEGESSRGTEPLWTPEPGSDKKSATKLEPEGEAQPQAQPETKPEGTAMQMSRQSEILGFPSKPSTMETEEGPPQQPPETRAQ", "assay": "Selectivity interaction (KinomeScan (DiscoverX)) EUB0001049a TSSK1B", "conditions": "at 1 µM"}, "[9]": {"molecular_target": "Tyrosine-protein kinase SYK (Homo sapiens, UniProt P43405)", "assay": "Selectivity interaction (ActivX KiNativ screen (ex vivo kinase selectivity in human PBMCs)) EUB0001619a SYK", "format": "cell-based", "conditions": "PBMC, at 1 µM"}, "[10]": {"test_system": "Leucine-rich repeat serine/threonine-protein kinase 2 (Homo sapiens), Q5S007 [G2019S]", "sequence (Q5S007 whole entry G2019S)": "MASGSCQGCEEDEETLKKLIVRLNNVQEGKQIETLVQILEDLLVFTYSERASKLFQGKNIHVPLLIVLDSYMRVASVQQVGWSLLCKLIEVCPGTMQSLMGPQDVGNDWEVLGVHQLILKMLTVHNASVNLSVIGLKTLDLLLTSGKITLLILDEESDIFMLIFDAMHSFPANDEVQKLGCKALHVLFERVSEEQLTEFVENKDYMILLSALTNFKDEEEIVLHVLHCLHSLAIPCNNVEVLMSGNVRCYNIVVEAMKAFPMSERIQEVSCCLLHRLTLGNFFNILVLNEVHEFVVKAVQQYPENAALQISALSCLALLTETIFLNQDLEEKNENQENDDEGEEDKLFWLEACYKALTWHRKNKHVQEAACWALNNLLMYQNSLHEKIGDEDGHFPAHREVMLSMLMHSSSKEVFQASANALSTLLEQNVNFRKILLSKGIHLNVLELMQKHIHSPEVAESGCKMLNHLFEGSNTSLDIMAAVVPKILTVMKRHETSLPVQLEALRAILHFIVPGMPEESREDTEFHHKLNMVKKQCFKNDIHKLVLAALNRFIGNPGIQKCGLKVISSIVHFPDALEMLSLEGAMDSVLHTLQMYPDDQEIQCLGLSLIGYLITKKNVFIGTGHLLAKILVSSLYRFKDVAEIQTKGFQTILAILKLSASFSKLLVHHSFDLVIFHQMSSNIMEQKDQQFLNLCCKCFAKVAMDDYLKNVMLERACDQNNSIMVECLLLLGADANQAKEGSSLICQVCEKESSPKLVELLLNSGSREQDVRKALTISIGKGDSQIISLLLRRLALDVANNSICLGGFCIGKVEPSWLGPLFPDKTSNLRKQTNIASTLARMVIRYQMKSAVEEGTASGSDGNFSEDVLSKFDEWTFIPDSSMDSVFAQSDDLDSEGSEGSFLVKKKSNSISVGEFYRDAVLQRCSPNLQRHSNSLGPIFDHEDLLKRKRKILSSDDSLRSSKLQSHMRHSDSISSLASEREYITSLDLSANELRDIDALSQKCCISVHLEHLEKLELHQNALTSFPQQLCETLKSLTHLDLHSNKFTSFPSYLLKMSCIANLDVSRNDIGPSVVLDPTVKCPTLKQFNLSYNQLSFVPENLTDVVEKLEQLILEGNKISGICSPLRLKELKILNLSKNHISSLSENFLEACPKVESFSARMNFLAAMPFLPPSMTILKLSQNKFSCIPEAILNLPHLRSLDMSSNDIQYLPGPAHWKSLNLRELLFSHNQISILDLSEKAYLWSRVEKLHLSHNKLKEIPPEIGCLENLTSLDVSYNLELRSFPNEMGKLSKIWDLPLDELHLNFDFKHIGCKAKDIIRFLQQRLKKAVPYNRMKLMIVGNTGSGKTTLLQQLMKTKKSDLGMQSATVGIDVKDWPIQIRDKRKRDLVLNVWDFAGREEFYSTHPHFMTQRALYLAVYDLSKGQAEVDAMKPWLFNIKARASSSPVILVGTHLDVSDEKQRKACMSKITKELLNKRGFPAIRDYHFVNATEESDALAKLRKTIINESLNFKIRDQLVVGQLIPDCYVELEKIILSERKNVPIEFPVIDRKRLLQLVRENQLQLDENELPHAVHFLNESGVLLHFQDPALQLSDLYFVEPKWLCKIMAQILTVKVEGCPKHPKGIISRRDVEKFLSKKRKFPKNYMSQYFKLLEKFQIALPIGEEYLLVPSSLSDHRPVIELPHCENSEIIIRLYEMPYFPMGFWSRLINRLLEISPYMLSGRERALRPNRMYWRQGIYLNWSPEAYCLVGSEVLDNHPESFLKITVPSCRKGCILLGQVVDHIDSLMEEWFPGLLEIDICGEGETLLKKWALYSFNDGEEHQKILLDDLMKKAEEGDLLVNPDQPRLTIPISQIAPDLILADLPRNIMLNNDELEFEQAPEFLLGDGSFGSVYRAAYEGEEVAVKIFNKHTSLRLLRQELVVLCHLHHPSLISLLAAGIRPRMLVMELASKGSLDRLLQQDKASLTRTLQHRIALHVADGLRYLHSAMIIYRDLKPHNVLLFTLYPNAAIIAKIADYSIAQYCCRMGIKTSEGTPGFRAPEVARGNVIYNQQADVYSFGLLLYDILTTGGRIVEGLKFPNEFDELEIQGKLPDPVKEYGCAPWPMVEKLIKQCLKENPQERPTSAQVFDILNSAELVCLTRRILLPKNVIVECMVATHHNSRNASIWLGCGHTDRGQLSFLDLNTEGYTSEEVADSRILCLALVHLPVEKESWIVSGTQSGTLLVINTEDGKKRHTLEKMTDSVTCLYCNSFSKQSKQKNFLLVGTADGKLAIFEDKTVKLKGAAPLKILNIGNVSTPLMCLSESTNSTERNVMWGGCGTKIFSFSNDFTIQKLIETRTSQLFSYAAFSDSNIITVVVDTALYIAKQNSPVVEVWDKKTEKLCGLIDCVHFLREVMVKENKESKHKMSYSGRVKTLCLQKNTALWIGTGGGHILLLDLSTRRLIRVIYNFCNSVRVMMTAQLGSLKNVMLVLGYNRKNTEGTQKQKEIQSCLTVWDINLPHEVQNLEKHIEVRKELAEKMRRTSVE", "conditions": "at 1 µM"}}}
{"smiles": "CCC(=O)N1CCN(c2ccc(-n3c(=O)ccc4cnc5ccc(-c6cnc7ccccc7c6)cc5c43)cc2C(F)(F)F)CC1", "values": [{"measurement": "% of control", "setting": "[1]", "value": 66, "unit": "%"}]}
{"smiles": "Nc1cnc(N2CCc3cc(S(=O)(=O)Nc4c(F)cc(Cl)cc4F)cc(N4CCCC4=O)c32)nc1", "note": "[TP-020n]", "values": [{"measurement": "% of control", "setting": "[2]", "value": 71, "unit": "%"}]}
{"smiles": "O=C(NOC[C@H](O)CO)c1ccc(F)c(F)c1Nc1ccc(I)cc1F", "values": [{"measurement": "% of control", "setting": "[3]", "value": 83, "unit": "%"}]}
{"smiles": "CC[C@@H]1[C@H](F)C(=O)N[C@@H]1COc1nccc2cc(C(N)=O)c(OC)cc12", "note": "[ZIMLOVISERTIB]", "values": [{"measurement": "% of inhibition", "setting": "[4]", "value": -20.4, "unit": "%"}, {"measurement": "% of inhibition", "setting": "[5]", "value": 2.51, "unit": "%"}, {"measurement": "% of inhibition", "setting": "[6]", "value": -7.3, "unit": "%"}]}
{"smiles": "CNC(=O)Nc1ccc(-c2nc(N3CC4CCC(C3)O4)c3cnn(C4CCC5(CC4)OCCO5)c3n2)cc1", "values": [{"measurement": "% of control", "setting": "[7]", "value": 100, "unit": "%"}]}
{"smiles": "COc1cc(Nc2nc(C)cc(-c3cnn4nc(OC)ccc34)n2)cc(C(F)(F)F)c1", "values": [{"measurement": "% of control", "setting": "Focal adhesion kinase 1", "value": 86, "unit": "%"}, {"measurement": "% of control", "setting": "[8]", "value": 100, "unit": "%"}]}
{"smiles": "N#Cc1cccc(-c2c[nH]c3ncnc(N4CCOCC4)c23)c1", "values": [{"measurement": "% of inhibition", "setting": "[9]", "value": -12, "unit": "%"}, {"measurement": "% of control", "setting": "[10]", "value": 75, "unit": "%"}]}
